Data on one compound can be found in patent US5705509A, “Tricyclic heterocyclic compounds as 5-HT4 receptor antagonists” (SmithKline Beecham plc, priority 1993, dated 1998).

SMILES strings stand for the structures.

The experiment deals with T1, 5-HT4 receptor (Cavia porcellus, UniProt O70528).
T1 construct: Longitudinal muscle-myenteric plexus preparations, approximately 3 cm long, are obtained from the distal colon region; from tissue; host or cells: guinea-pig distal colon, longitudinal muscle-myenteric plexus
Briefly: Guinea pig colon 5-HT4 receptor antagonist activity (reduction of 5-HT evoked contraction of longitudinal muscle-myenteric plexus). Particulars: distal colon longitudinal muscle-myenteric plexus; contraction evoked by 5-HT; methiothepin 10^-7 M and granisetron 10^-6 M present; n=4; read-out: pIC50 (-log concentration of antagonist which reduces the contraction by 50%) (converted). As for the experimental part:
Male guinea-pigs, weighing 250-400 g are used. Longitudinal muscle-myenteric plexus preparations, approximately 3 cm long, are obtained from the distal colon region. These are suspended under a 0.5 g load in isolated tissue baths containing Krebs solution bubbled with 5% CO2 in O2 and maintained at 37° C. In all experiments, the Krebs solution also contains methiothepin 10^-7 M and granisetron 10^-6 M to block effects at 5-HT1, 5-HT2 and 5-HT3 receptors.
After construction of a simple concentration-response curve with 5-HT, using 30s contact times and a 15 min dosing cycle, a concentration of 5-HT is selected so as to obtain a contraction of the muscle approximately 40-70% maximum(10^-9 M approx). The tissue is then alternately dosed every 15 min with this concentration of 5-HT and then with an approximately equi-effective concentration of the nicotine receptor stimulant, dimethylphenylpiperazinium (DMPP). After obtaining consistent responses to both 5-HT and DMPP, increasing concentrations of a putative 5-HT4 receptor antagonist are then added to the bathing solution. The effects of this compound are then determined as a percentage reduction of the contractions evoked by 5-HT or by DMPP. […] A compound which reduces the response to 5-HT but not to DMPP is believed to act as a 5-HT4 receptor antagonist.

T1 sequence (O70528 whole entry): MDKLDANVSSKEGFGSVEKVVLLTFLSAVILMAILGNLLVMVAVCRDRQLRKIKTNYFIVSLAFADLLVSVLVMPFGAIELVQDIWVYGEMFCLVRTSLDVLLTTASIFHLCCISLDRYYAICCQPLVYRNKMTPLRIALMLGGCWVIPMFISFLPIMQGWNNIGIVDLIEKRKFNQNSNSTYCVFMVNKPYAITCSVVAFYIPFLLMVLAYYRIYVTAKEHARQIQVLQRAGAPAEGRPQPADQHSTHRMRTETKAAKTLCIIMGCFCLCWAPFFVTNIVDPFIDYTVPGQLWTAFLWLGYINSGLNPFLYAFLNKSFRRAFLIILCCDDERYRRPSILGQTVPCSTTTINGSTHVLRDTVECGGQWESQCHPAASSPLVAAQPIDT

As to `CCCCN1CCC(COC(=O)c2cc3[nH]cnc3c3c2OCCO3)CC1` [Example 1, (1-Butyl-4-piperidinyl)methyl 1 H-7,8-dihydro-[1,4]-dioxino[2,3-g]benzimidazole-5-carboxylate], the IC50 is 166 nM.
